In one assay the test system is Uromyces appendiculatus. As to the kind of experiment: in vivo preventive test on Uromyces appendiculatus (beans). To be noted: 100 ppm of active ingredient, evaluated 10 days after inoculation. The method, then:
(§1) Solvent: 24.5 parts by weight of acetone • 24.5 parts by weight of N,N-dimethylacetamide Emulsifier: 1 part by weight of alkylaryl polyglycol ether To produce a suitable preparation of active compound, 1 part by weight of active compound is mixed with the stated amounts of solvent and emulsifier, and the concentrate is diluted with water to the desired concentration. To test for preventive activity, young plants are sprayed with the preparation of active compound at the stated rate of application. After the spray coating has dried on, the plants are inoculated with an aqueous spore suspension of the causal agent of bean rust (Uromyces appendiculatus) and then remain for 1 day in an incubation cabinet at approximately 20° C. and a relative atmospheric humidity of 100%. The plants are then placed in a greenhouse at approximately 21° C. and a relative atmospheric humidity of approximately 90%. The test is evaluated 10 days after the inoculation. 0% means an efficacy which corresponds to that of the untreated control, while an efficacy of 100% means that no disease is observed.

Another assay relates to Alternaria solani. As to the kind of experiment: in vivo preventive test on Alternaria solani (tomato). To be noted: 500 ppm of active ingredient, evaluated 7 days after inoculation. The method, boiled down: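 Young tomato plants were sprayed preventively with compound in DMF/alkylarylpolyglycolether diluted in water, then inoculated one day later with A. solani spores. Incubation was 1 day at about 22 °C and 100% RH, then about 20 °C and 96% RH. Efficacy was scored 7 days after inoculation (0% = untreated control, 100% = no disease).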

The subject of another assay is Venturia inaequalis. As to the kind of experiment: in vivo preventive test on Venturia inaequalis (apple scab). As to conditions: 100 ppm of active ingredient, evaluated 10 days after inoculation. The method, then: as §1, with “conidia” for “spore”, “apple scab (Venturia inaequalis)” for “bean rust (Uromyces appendiculatus)”
The next assay deals with Botrytis cinerea. As to the kind of experiment: in vivo protective test on Botrytis cinerea (beans). To be noted: 100 ppm of active ingredient, preventive, lesion size 2 days after inoculation. The procedure:
Solvent: 24.5 parts by weight of acetone • 24.5 parts by weight of N,N-dimethylacetamide Emulsifier: 1 part by weight of alkylaryl polyglycol ether To produce a suitable preparation of active compound, 1 part by weight of active compound is mixed with the stated amounts of solvent and emulsifier, and the concentrate is diluted with water to the desired concentration. To test for preventive activity, young plants are sprayed with the preparation of active compound. After the spray coating has dried on, 2 small pieces of agar covered with growth of Botrytis cinerea are placed on each leaf. The inoculated plants are placed in a darkened chamber at 20° C. and a relative atmospheric humidity of 100%. 2 days after the inoculation, the size of the lesions on the leaves is evaluated. 0% means an efficacy which corresponds to that of the untreated control, while an efficacy of 100% means that no disease is observed.

A further assay deals with Puccinia triticina. Briefly: in vivo protective test on Puccinia triticina (wheat). As to conditions: 500 ppm of active ingredient, preventive, evaluated 8 days after inoculation. The method, then:
Solvent: 49 parts by weight of N,N-dimethylacetamide Emulsifier: 1 part by weight of alkylaryl polyglycol ether To produce a suitable preparation of active compound, 1 part by weight of active compound or active compound combination is mixed with the stated amounts of solvent and emulsifier, and the concentrate is diluted with water to the desired concentration. To test for preventive activity, young plants are sprayed with the preparation of active compound or active compound combination at the stated rate of application. After the spray coating has been dried, the plants are sprayed with a spore suspension of Puccinia triticina. The plants remain for 48 hours in an incubation cabinet at approximately 20° C. and a relative atmospheric humidity of approximately 100%. The plants are placed in the greenhouse at a temperature of approximately 20° C. and a relative atmospheric humidity of approximately 80%. The test is evaluated 8 days after the inoculation. 0% means an efficacy which corresponds to that of the untreated control, while an efficacy of 100% means that no disease is observed.

Regarding `CC(c1cc2ccccc2o1)N(C(=O)c1c(C(F)F)nn(C)c1F)C1CC1` (racemic) [Example 70], the Efficacy with Uromyces appendiculatus was 100%; in the assay on Alternaria solani, 100%; with Venturia inaequalis, 100%; in the assay with Botrytis cinerea, 95%.

As for `CC(c1cc2ccccc2s1)N(C(=O)c1c(C(F)F)nn(C)c1F)C1CC1` (racemic) [Example 80], the Efficacy with Puccinia triticina, in the assay on Venturia inaequalis and in the assay on Botrytis cinerea was 100% throughout.

Regarding `CC(c1cccc2ccsc12)N(C(=O)c1c(C(F)F)nn(C)c1F)C1CC1` (stereo not drawn) [Example 91], the Efficacy in the assay on Alternaria solani was determined as 95%; with Puccinia triticina, 100%; with Venturia inaequalis, 100%.

As for `Cn1nc(C(F)F)c(C(=S)N(Cc2cccc3ccsc23)C2CC2)c1F` [Example 95], the Efficacy came to 90% with Uromyces appendiculatus, 95% with Alternaria solani, 83% in the assay with Puccinia triticina and 99% in the assay on Venturia inaequalis.

Take `CC(c1cc(Cl)sc1Cl)N(C(=O)c1c(C(F)F)nn(C)c1F)C1CC1` (stereo not drawn) [Example 128]: the Efficacy with Uromyces appendiculatus, in the assay on Alternaria solani, in the assay on Puccinia triticina, in the assay on Venturia inaequalis and in the assay with Botrytis cinerea was 100% in each case.

With `Cc1sc(-c2ccccc2)cc1C(C)N(C(=O)c1c(C(F)F)nn(C)c1F)C1CC1` (stereo not drawn) [Example 147], the Efficacy is recorded as 83% with Uromyces appendiculatus, 95% in the assay on Alternaria solani, 100% in the assay with Venturia inaequalis and 100% in the assay on Botrytis cinerea.

For the compound `CC(C)c1nn(-c2ccccc2)c(Cl)c1CN(C(=O)c1c(C(F)F)nn(C)c1F)C1CC1` [Example 169], the Efficacy with Uromyces appendiculatus, with Alternaria solani, with Puccinia triticina and in the assay on Botrytis cinerea was 100% in each case.

The values above are taken from patent US9320276B2, “N-hetarylmethyl pyrazolylcarboxamides” (BAYER INTELLECTUAL PROPERTY GMBH, priority 2010, dated 2016).
